{"source": "patent US12404232B2", "about": "“Compounds and compositions for intracellular delivery of therapeutic agents” (ModernaTX, Inc., priority 2015, dated 2025)", "system": "mice", "assay": "Luc expression in liver, lung, spleen and femur after intravenous administration to mice", "type": "in vivo", "conditions": "Luc mRNA, i.v. to mice, 0.5 mpk, 6 hours", "description": "The efficacy of the nanoparticle compositions presented in Table 1A was further evaluated by measuring the expression of modified luciferase in the liver, lung, spleen, and femur upon administration of a given composition. Formulations were administered intravenously to mice (n=3) at a dosage of 0.5 mpk and bioluminescence measured after 6 hours. The standard MC3 formulation and a PBS control were also tested. […] Flux in the liver was lowest for compositions including Compounds 58, 59, 137, and 141. Flux in the spleen was highest for compositions including Compounds 4, 7, 33, 34, 48, 53, 108, 129, 130, and 148, and lowest for compositions including Compounds 9, 59, 124, and 141.", "data": [{"smiles": "CCCCCC=CCC=CCCCCCCCCC(CCCCCCCCC=CCC=CCCCCC)OC(=O)CCCN(C)C", "note": "(stereo not shown) [MC3, heptatriaconta-6,9,28,31-tetraen-19-yl 4-(dimethylamino)butanoate, reference compound]", "values": [{"measurement": "Total Flux Femur", "result": "2.56E+06"}, {"measurement": "Total Flux Liver", "result": "2.57E+09"}, {"measurement": "Total Flux Lung", "result": "1.27E+07"}, {"measurement": "Total Flux Spleen", "result": "2.85E+07"}]}]}
